According to patent publication US10047105B2, “Gyrase inhibitors” (Merck Sharp & Dohme Corp., priority 2009, dated 2018):
Converted amounts (≈) assume the structure as drawn.

What was measured:
S. pneumoniae ATCC 51916 = experiment: MIC, S. pneumoniae; type: cell-based; conditions: S. pneumoniae
S. aureus ATCC 13709 = experiment: MIC, antibacterial potency, S. aureus; type: cell-based; conditions: S. aureus

Compound | MIC Spn52 (S. pneumoniae ATCC 51916) [µg/mL] | MIC, SA (S. aureus ATCC 13709) [µg/mL]
CCOc1nc(Sc2nc(C(=O)O)c(C(C)C)s2)nc2[nH]c(CC)c(Br)c12 [700,303] | 32 (≈ 67.9 µM) | 4 (≈ 8.49 µM)
CCOc1nc(Sc2nc(C(=O)OC)c(C(C)C)s2)nc2[nH]c(CC)c(Cl)c12 [700,304] | 32 (≈ 72.6 µM) | 8 (≈ 18.1 µM)
CCOc1nc(Sc2cc(C(=O)NC3CC3)ccn2)nc2[nH]c(CC)c(Br)c12 [700,305] | > 64 | > 64
CCOc1nc(Sc2cc(C(=O)NC3CC3)ccn2)nc2[nH]c(CC)c(Cl)c12 [700,306] | > 64 | > 64
CCc1[nH]c2nc(Sc3cccc(CC(=O)O)c3)nc(Cl)c2c1Br [700,307] | 64 (≈ 150 µM) | 4 (≈ 9.37 µM)
Fc1ccc(Oc2nc(Nc3cccnc3)nc3[nH]cc(Br)c23)c(F)c1.O=C(O)C(F)(F)F [700,315] | 64 | 16
CCc1[nH]c2nc(Sc3nc(C(=O)O)cs3)nc(N3CC(Cc4c(Cl)ncnc4Cl)C3)c2c1Cl.O=C(O)C(F)(F)F [700,317] | > 64 | > 64
CCc1[nH]c2nc(Sc3nc(C(=O)O)cs3)nc(N3CC(Cc4cncnc4)C3)c2c1Cl.O=C(O)C(F)(F)F [700,318] | > 64 | > 64
CCc1[nH]c2nc(Sc3nc(C(=O)OC)cs3)nc(Cl)c2c1Cl [700,320] | > 64 | > 64
CCOc1nc(Sc2cc(C(=O)O)ccn2)nc2[nH]c(CC)c(Cl)c12 [700,321] | 64 (≈ 169 µM) | 64 (≈ 169 µM)
CCc1[nH]c2nc(Sc3nc(C(=O)O)cs3)nc(NC[C@H](C)O)c2c1Cl [700,322] | > 64 | > 64
CCc1[nH]c2nc(Sc3nc(C(=O)O)cs3)nc(NCCCn3ccnc3)c2c1Cl [700,323] | > 64 | > 64
CCOc1nc(Sc2ccc(NC3CC3)nn2)nc2[nH]c(CC)c(Cl)c12 [700,324] | 64 (≈ 164 µM) | > 64
CCNc1ccc(Sc2nc(OCC)c3c(Cl)c(CC)[nH]c3n2)nn1 [700,325] | > 64 | > 64
CCOc1nc(Sc2ccc(NCCCOC)nn2)nc2[nH]c(CC)c(Cl)c12 [700,326] | 32 (≈ 75.7 µM) | > 64
CCOc1nc(Sc2ccc(N3CCC(O)CC3)nn2)nc2[nH]c(CC)c(Cl)c12 [700,327] | 64 (≈ 147 µM) | 32 (≈ 73.6 µM)
CCc1[nH]c2nc(Sc3nc(C(=O)OC)c(Cl)s3)nc(OCC3CCC3)c2c1Cl [700,328] | 64 (≈ 135 µM) | > 64
CCOc1nc(Nc2cccnc2)nc2[nH]c(CC)c(Br)c12 [700,331] | > 64 | 8 (≈ 22.1 µM)
CCc1[nH]c2nc(SC)nc(CCC3OCCCO3)c2c1Br [700,332] | > 64 | > 64
CCc1[nH]c2nc(SC)nc(CCCNCCN3CCOCC3)c2c1Br [700,334] | > 64 | > 64
CCc1[nH]c2nc(Sc3nc(C(=O)O)cs3)nc(N3CC(F)(F)C3)c2c1Cl.O=C(O)C(F)(F)F [700,338] | 64 | 8
CCOc1nc(Sc2nc(OC)c3cccnc3n2)nc2[nH]c(CC)c(Cl)c12 [700,339] | > 64 | > 64
CCc1[nH]c2nc(Sc3nc(C(=O)O)cs3)nc(N3CC(O)C3)c2c1Cl [700,340] | > 64 | > 64
CCOc1nc(Sc2ncc3cccnc3n2)nc2[nH]c(CC)c(Cl)c12 [700,341] | > 64 | > 64
CCc1[nH]c2nc(Sc3nc(C(=O)O)cs3)nc(NCCCNS(C)(=O)=O)c2c1Cl [700,342] | > 64 | > 64
CCc1[nH]c2nc(Sc3nc(C(=O)O)cs3)nc(NCCCNC(=N)N)c2c1Cl.O=C(O)C(F)(F)F [700,343] | > 64 | > 64
CCc1[nH]c2nc(Sc3cnc4cccnc4n3)nc(N3CC(O)C3)c2c1Cl [700,345] | 2 (≈ 4.83 µM) | ≤ 0.5
CCc1[nH]c2nc(Sc3cnc4cccnc4n3)nc(N3CC(O)C3)c2c1Br [700,346] | ≤ 0.5 | ≤ 0.5

Compound | MIC Spn52 (S. pneumoniae ATCC 51916) [µg/mL] | MIC, SA (S. aureus ATCC 13709) [µg/mL]
CCOc1nc(Sc2cc(=O)[nH]c(=O)[nH]2)nc2[nH]c(CC)c(Cl)c12 [700,347, 6-(5-chloro-4-ethoxy-6-ethyl-7H-pyrrolo[2,3-d]pyrimidin-2-ylthio)pyrimidine-2,4(1H,3H)-dione] | 8 (≈ 21.7 µM) | 1 (≈ 2.72 µM)
CCOc1nc(Nc2nc(C(=O)O)cs2)nc2[nH]c(CC)c(Br)c12.O=C(O)C(F)(F)F [700,350] | 64 | 32
Cc1[nH]c2nc(Sc3cnc4cccnc4n3)nc(N3CC(O)C3)c2c1C [700,351] | > 64 | > 64
CCc1[nH]c2nc(Sc3nc4ncccc4c(=O)[nH]3)nc(N3CC(O)C3)c2c1Cl [700,353] | > 64 | > 64
CCOc1nc(Nc2cccc(C(=O)O)c2)nc2[nH]c(CC)c(Br)c12.O=C(O)C(F)(F)F [700,354] | > 64 | 2
CCc1[nH]c2nc(Sc3nc(-c4nnn[nH]4)cs3)nc(N3CC(O)C3)c2c1Cl.Cl.Cl.Cl.Cl [700,355] | > 64 | > 64
CCc1[nH]c2nc(Sc3nc(C(=O)O)cs3)nc(N3CCN(C(C)=O)CC3)c2c1Cl.O=C(O)C(F)(F)F [700,356] | > 64 | > 64
CCc1[nH]c2nc(Sc3nc(C(=O)O)cs3)nc(N3CCC(=O)C3)c2c1Cl.O=C(O)C(F)(F)F [700,357] | > 64 | > 64
CCc1[nH]c2nc(Sc3nc4ncccc4c(=O)[nH]3)nc(N3CC(O)C3)c2c1Br [700,358] | > 64 | > 64
CCc1[nH]c2nc(Sc3cc(=O)[nH]c(=O)[nH]3)nc(N3CC(O)C3)c2c1Cl [700,359] | 8 (≈ 20.3 µM) | 2 (≈ 5.07 µM)
CCc1[nH]c2nc(Sc3cc(=O)[nH]c(=O)[nH]3)nc(N3CC(O)C3)c2c1Br [700,360] | 2 (≈ 4.55 µM) | ≤ 0.5
Cc1[nH]c2nc(Sc3cc(=O)[nH]c(=O)[nH]3)nc(N3CC(O)C3)c2c1Br [700,362] | > 64 | > 64
CCOc1nc(Nc2cnc3ccccc3c2)nc2[nH]c(CC)c(Br)c12.O=C(O)C(F)(F)F [700,363] | > 64 | > 64
CCc1[nH]c2nc(Sc3nc(C(=O)NOC)cs3)nc(N3CCN(C(C)=O)CC3)c2c1Cl.O=C(O)C(F)(F)F [700,364] | > 64 | 32
CCc1[nH]c2nc(Sc3nc(C(=O)N4CCOCC4)cs3)nc(N3CCN(C(C)=O)CC3)c2c1Cl.O=C(O)C(F)(F)F [700,365] | > 64 | > 64
CCc1[nH]c2nc(Sc3cc(-n4cccn4)nc(C)n3)nc(NCC3CCCO3)c2c1Cl (centres unmarked) [700,373] | > 64 | > 64
CCc1[nH]c2nc(Cn3cncn3)nc(N3CCN(C(C)=O)CC3)c2c1Br [700,374] | > 64 | > 64
CCOc1nc(Nc2cnc3cccnc3n2)nc2[nH]c(CC)c(Br)c12.Cl.Cl [700,378] | > 64 | > 64
CCOc1nc(Nc2cnc3c(cnn3C(C)C)c2)nc2[nH]c(CC)c(Br)c12.O=C(O)C(F)(F)F [700,381] | 8 | 1
CCc1[nH]c2nc(Nc3cnc4c(cnn4C(C)C)c3)nc(N3CC(O)C3)c2c1Br [700,385] | > 64 | 8 (≈ 17 µM)
CCOC(=O)Cn1c(=O)cc(Sc2nc(N3CC(O)C3)c3c(Br)c(CC)[nH]c3n2)[nH]c1=O [700,386, Ethyl 2-(4-(5-bromo-6-ethyl-4-(3-hydroxyazetidin-1-yl)-7H-pyrrolo[2,3-d]pyrimidin-2-ylthio)-2,6-dioxo-2,3-dihydropyrimidin-1 (6H)-yl)acetate] | 8 (≈ 15.2 µM) | ≤ 0.5
CCc1[nH]c2nc(Sc3nc(-c4nnc(C)o4)cs3)nc(N3CC(O)C3)c2c1Cl.Cl.Cl.Cl [700,387] | > 64 | 16
CCOc1nc(Nc2ccc3cccnc3c2)nc2[nH]c(CC)c(Br)c12.O=C(O)C(F)(F)F [700,388] | 16 | 4
CCOc1nc(Nc2cc(OC)c(OC)c(OC)c2Br)nc2[nH]c(CC)c(Br)c12.O=C(O)C(F)(F)F [700,389] | > 64 | > 64
CCc1[nH]c2nc(Sc3cnc4cccnc4n3)nc(N3CC(NC(=O)OCc4ccccc4)C3)c2c1Br [700,390] | ≤ 0.5 | ≤ 0.5
CCc1[nH]c2nc(Sc3nc(C(=O)O)c(Cl)s3)nc(N3CC(O)C3)c2c1Br [700,391] | > 64 | > 64
CCc1[nH]c2nc(Sc3cnc4nccnc4c3)nc(N3CC(O)C3)c2c1Br [700,392] | ≤ 0.5 | ≤ 0.5
